Laboratory results: the NIST ThermoML archive (doi:10.1021/je200195q)
Numbers after ± are expanded uncertainties.

Experiment: activity coefficient (dimensionless); of the first substance listed, at infinite dilution; xn = mol fraction of the nth substance listed
Conditions: 101 kPa, Liquid, Chromatography, x1 = 0

SMILES	activity coefficient (323.1 K)	activity coefficient (333.15 K)	activity coefficient (343.15 K)	also measured
CO [methanol] + CCn1cc[n+](C)c1.CS(=O)(=O)[O-]	–	–	–	activity coefficient (312.55 K): 0.249 ± 0.03; activity coefficient (322.45 K): 0.254 ± 0.03; activity coefficient (332.45 K): 0.264 ± 0.03
C#CCCCC [1-hexyne] + CCCCCCCCCCn1cc[n+](CCCCCCCCCC)c1C.O=S(=O)([N-]S(=O)(=O)C(F)(F)F)C(F)(F)F	0.925 ± 0.058	0.917 ± 0.058	0.899 ± 0.057	–
ClC(Cl)(Cl)Cl [tetrachloromethane] + CCn1cc[n+](C)c1.CS(=O)(=O)[O-]	–	–	–	activity coefficient (312.55 K): 4.57 ± 0.31; activity coefficient (322.45 K): 4.79 ± 0.33; activity coefficient (332.45 K): 0.669 ± 0.045
C=O [methanal] + CCCCCC[n+]1ccn(C)c1.FC(F)(F)C(F)(F)[P-](F)(F)(F)(C(F)(F)C(F)(F)F)C(F)(F)C(F)(F)F	–	–	–	activity coefficient (312.8 K): 0.096 ± 0.03; activity coefficient (332.85 K): 0.134 ± 0.029; activity coefficient (354.65 K): 0.146 ± 0.029
CC#N [acetonitrile] + CCCCCC[n+]1ccn(C)c1.FC(F)(F)C(F)(F)[P-](F)(F)(F)(C(F)(F)C(F)(F)F)C(F)(F)C(F)(F)F	–	–	–	activity coefficient (312.8 K): 0.295 ± 0.031; activity coefficient (332.85 K): 0.295 ± 0.031; activity coefficient (354.65 K): 0.292 ± 0.031
CCN(CC)CC [triethylamine] + CCCCCCCCCCn1cc[n+](CCCCCCCCCC)c1C.O=S(=O)([N-]S(=O)(=O)C(F)(F)F)C(F)(F)F	3.67 ± 0.25	3.17 ± 0.22	2.86 ± 0.2	–
CCC(C)CC [3-methylpentane] + CCCCCCCCCCn1cc[n+](CCCCCCCCCC)c1C.O=S(=O)([N-]S(=O)(=O)C(F)(F)F)C(F)(F)F	1.71 ± 0.11	1.68 ± 0.11	1.63 ± 0.11	–
c1ccncc1 [pyridine] + CCCCCCCCCCn1cc[n+](CCCCCCCCCC)c1C.O=S(=O)([N-]S(=O)(=O)C(F)(F)F)C(F)(F)F	0.328 ± 0.032	0.331 ± 0.032	0.334 ± 0.032	–
C[N+](=O)[O-] [nitromethane] + CCCCCCCCCCn1cc[n+](CCCCCCCCCC)c1C.O=S(=O)([N-]S(=O)(=O)C(F)(F)F)C(F)(F)F	0.596 ± 0.042	0.559 ± 0.04	0.536 ± 0.039	–
ClC(Cl)Cl [trichloromethane] + CCCCCCCCCCn1cc[n+](CCCCCCCCCC)c1C.O=S(=O)([N-]S(=O)(=O)C(F)(F)F)C(F)(F)F	0.374 ± 0.033	0.395 ± 0.034	0.402 ± 0.034	–
CCOCC [diethyl ether] + CCCCCCCCCCn1cc[n+](CCCCCCCCCC)c1C.O=S(=O)([N-]S(=O)(=O)C(F)(F)F)C(F)(F)F	0.746 ± 0.049	0.771 ± 0.05	0.773 ± 0.051	–
Cc1ccc(C)cc1 [1,4-dimethylbenzene] + CCCCCCCCCCn1cc[n+](CCCCCCCCCC)c1C.O=S(=O)([N-]S(=O)(=O)C(F)(F)F)C(F)(F)F	0.647 ± 0.044	0.66 ± 0.045	0.657 ± 0.045	–
CCC=O [propanal] + CCCCCC[n+]1ccn(C)c1.FC(F)(F)C(F)(F)[P-](F)(F)(F)(C(F)(F)C(F)(F)F)C(F)(F)C(F)(F)F	–	–	–	activity coefficient (312.8 K): 0.274 ± 0.03; activity coefficient (332.85 K): 0.283 ± 0.03; activity coefficient (354.65 K): 0.285 ± 0.031
CCC[N+](=O)[O-] [1-nitropropane] + CCCCCC[n+]1ccn(C)c1.FC(F)(F)C(F)(F)[P-](F)(F)(F)(C(F)(F)C(F)(F)F)C(F)(F)C(F)(F)F	–	–	–	activity coefficient (312.8 K): 0.452 ± 0.036; activity coefficient (332.85 K): 0.451 ± 0.036; activity coefficient (354.65 K): 0.436 ± 0.035
Cc1ccccc1C [1,2-dimethylbenzene] + CCCCCCCCCCn1cc[n+](CCCCCCCCCC)c1C.O=S(=O)([N-]S(=O)(=O)C(F)(F)F)C(F)(F)F	0.626 ± 0.043	0.616 ± 0.043	0.603 ± 0.042	–
CCC(C)=O [butanone] + CCCCn1cc[n+](C)c1.O=S(=O)([N-]S(=O)(=O)C(F)(F)C(F)(F)F)C(F)(F)C(F)(F)F	–	–	–	activity coefficient (322.55 K): 0.453 ± 0.036; activity coefficient (342.75 K): 0.389 ± 0.034; activity coefficient (362.65 K): 0.351 ± 0.032
